In article PMC3783636 (ACS chemical biology, 2013):

How the values were obtained:
[1] = known Zn(II) affinity; ref Supporting Information; cited from earlier work
trypsin = details: oxidized, triple-stranded β-sheet fold; cited from earlier work
[2] = Midpoint potential determination in DTT redox buffers; details: pH 7.0, 75 mM HEPES, DTTred/DTTox redox buffers −230 to −290 mV, 25 µM HD5red or HD5ox, anaerobic, 20 h, rt (ca. 22 °C), HPLC peak areas, global fit

Molecule	Kd for Zn(II) of the sensor (range in words) [1]	further results
O=C(O)c1ccccc1NN=C(N=Nc1cc(S(=O)(=O)O)ccc1O)c1ccccc1 [Zincon]	micromolar	
FluoZin-1 [FZ1]	micromolar	
Zinpyr-4 [ZP4]	mid-picomolar	
HD5ox: oxidized form of HD5 with three disulfide bonds (peptide, UniProt Q01523 20-94, looked up, Defensin-5 oxidized, three disulfides) Defensin alpha 5: ESLQERADEATTQKQSGEDNQDLAISFAGNGLSALRTSGSQARATCYCRTGRCATRESLSGVCEISGRLYRLCCR		stability to trypsin (trypsin): resistant to degradation
HD5: 32-residue cysteine-rich host-defense peptide; the redox couple HD5ox/HD5red (peptide, UniProt Q01523 20-94, looked up, Defensin-5) Defensin alpha 5: ESLQERADEATTQKQSGEDNQDLAISFAGNGLSALRTSGSQARATCYCRTGRCATRESLSGVCEISGRLYRLCCR		midpoint potential [2]: −257 mV
